According to PubChem BioAssay (NCI):
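Test compounds were applied to cells in 96-well plates for 48 hours at 5 doses. TGI marks complete inhibition of growth.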

Columns and labels:
Assay in all cases: inhibition of tumour cell growth, NCI panel, 48 h
786-0 renal = system: 786-0 renal
A498 renal = system: A498 renal
A549 NSCLC = system: A549 NSCLC
ACHN renal = system: ACHN renal
BT-549 breast = system: BT-549 breast
CAKI-1 renal = system: CAKI-1 renal
CCRF-CEM leukemia = system: CCRF-CEM leukemia
COLO 205 colon = system: COLO 205 colon
DU-145 prostate = system: DU-145 prostate
EKVX NSCLC = system: EKVX NSCLC
HCC-2998 colon = system: HCC-2998 colon
HCT-116 colon = system: HCT-116 colon
HCT-15 colon = system: HCT-15 colon
HL-60(TB) leukemia = system: HL-60(TB) leukemia
HOP-62 NSCLC = system: HOP-62 NSCLC
HOP-92 NSCLC = system: HOP-92 NSCLC
HS 578T breast = system: HS 578T breast
HT29 colon = system: HT29 colon
IGROV1 ovarian = system: IGROV1 ovarian
K-562 leukemia = system: K-562 leukemia
KM12 colon = system: KM12 colon
LOX IMVI melanoma = system: LOX IMVI melanoma
M14 melanoma = system: M14 melanoma
MALME-3M melanoma = system: MALME-3M melanoma
MCF7 breast = system: MCF7 breast
MDA-MB-231 breast = system: MDA-MB-231 breast
MDA-MB-435 = system: MDA-MB-435
MDA-N = system: MDA-N
MOLT-4 leukemia = system: MOLT-4 leukemia
NCI-H226 lung = system: NCI-H226 lung
NCI-H23 lung = system: NCI-H23 lung
NCI-H460 lung = system: NCI-H460 lung
NCI-H522 lung = system: NCI-H522 lung
NCI/ADR-RES ovarian = system: NCI/ADR-RES ovarian
OVCAR-3 ovarian = system: OVCAR-3 ovarian
OVCAR-4 ovarian = system: OVCAR-4 ovarian
OVCAR-5 ovarian = system: OVCAR-5 ovarian
OVCAR-8 ovarian = system: OVCAR-8 ovarian
PC-3 prostate = system: PC-3 prostate
RPMI-8226 leukemia = system: RPMI-8226 leukemia
RXF 393 renal = system: RXF 393 renal
SF-268 CNS = system: SF-268 CNS
SF-539 CNS = system: SF-539 CNS
SK-MEL-2 melanoma = system: SK-MEL-2 melanoma
SK-MEL-28 melanoma = system: SK-MEL-28 melanoma
SK-MEL-5 melanoma = system: SK-MEL-5 melanoma
SN12C renal = system: SN12C renal
SNB-19 CNS = system: SNB-19 CNS
SNB-75 CNS = system: SNB-75 CNS
SW-620 colon = system: SW-620 colon
T-47D breast = system: T-47D breast
TK-10 renal = system: TK-10 renal
U251 CNS = system: U251 CNS
UACC-257 melanoma = system: UACC-257 melanoma
UACC-62 melanoma = system: UACC-62 melanoma
UO-31 renal = system: UO-31 renal
SF-295 CNS = system: SF-295 CNS
SK-OV-3 ovarian = system: SK-OV-3 ovarian

Measured: TGI

CC1CC[C@@]2(OC1)O[C@H]1[C@H](O)[C@H]3[C@@H]4CC[C@H]5C[C@@H](OC6OC(CO)C(OC7OC(CO)C(O)C(OC8OCC(O)C(O)C8O)C7OC7OC(CO)C(O)C(O)C7OC7OC(CO)C(O)C(O)C7O)C(O)C6O)[C@H](O)C[C@]5(C)[C@H]4CC[C@]3(C)[C@H]1[C@@H]2C (stereo partly drawn)
6.87 µM: NCI-H522 lung
5.14 µM: RPMI-8226 leukemia
2.51 µM: CCRF-CEM leukemia
> 10 µM: A498 renal | A549 NSCLC | ACHN renal | BT-549 breast | CAKI-1 renal | COLO 205 colon | DU-145 prostate | EKVX NSCLC | HCC-2998 colon | HCT-116 colon | HCT-15 colon | HOP-62 NSCLC | HOP-92 NSCLC | HS 578T breast | HT29 colon | IGROV1 ovarian | K-562 leukemia | KM12 colon | LOX IMVI melanoma | M14 melanoma | MALME-3M melanoma | MDA-MB-435 | MDA-N | NCI-H226 lung | NCI-H23 lung | NCI-H460 lung | NCI/ADR-RES ovarian | OVCAR-3 ovarian | OVCAR-4 ovarian | OVCAR-5 ovarian | OVCAR-8 ovarian | RXF 393 renal | SF-268 CNS | SF-539 CNS | SK-MEL-2 melanoma | SK-MEL-28 melanoma | SK-MEL-5 melanoma | SN12C renal | SNB-19 CNS | SNB-75 CNS | SW-620 colon | T-47D breast | TK-10 renal | U251 CNS | UACC-257 melanoma | UACC-62 melanoma | UO-31 renal
1.19 µM: MOLT-4 leukemia
7.71 µM: MCF7 breast
7.84 µM: PC-3 prostate
3.08 µM: HL-60(TB) leukemia
5.85 µM: MDA-MB-231 breast
9.37 µM: 786-0 renal

O=C(/C(=C(/O)c1ccccc1)c1nc2ccccc2sc1=O)c1ccccc1
72.8 µM: NCI-H226 lung
20.7 µM: HL-60(TB) leukemia
72.3 µM: HT29 colon
74.4 µM: NCI/ADR-RES ovarian | UO-31 renal
54.3 µM: SK-MEL-5 melanoma
76 µM: SK-MEL-2 melanoma
77.3 µM: SK-OV-3 ovarian
68 µM: NCI-H23 lung | NCI-H522 lung
44.1 µM: HOP-62 NSCLC
> 100 µM: 786-0 renal | A498 renal | A549 NSCLC | ACHN renal | BT-549 breast | CAKI-1 renal | COLO 205 colon | DU-145 prostate | EKVX NSCLC | HCT-116 colon | HCT-15 colon | HOP-92 NSCLC | HS 578T breast | IGROV1 ovarian | KM12 colon | LOX IMVI melanoma | MALME-3M melanoma | MDA-MB-231 breast | MDA-MB-435 | MDA-N | OVCAR-4 ovarian | OVCAR-5 ovarian | OVCAR-8 ovarian | PC-3 prostate | RXF 393 renal | SF-268 CNS | SK-MEL-28 melanoma | SNB-19 CNS | SNB-75 CNS | SW-620 colon | T-47D breast | TK-10 renal | U251 CNS | UACC-62 melanoma
75.5 µM: MCF7 breast
41.8 µM: RPMI-8226 leukemia
45 µM: K-562 leukemia
46.2 µM: UACC-257 melanoma
74.9 µM: SF-295 CNS
75 µM: SF-539 CNS
6.51 µM: CCRF-CEM leukemia
59.7 µM: HCC-2998 colon
36.3 µM: OVCAR-3 ovarian
33.3 µM: M14 melanoma
90.5 µM: SN12C renal
30.5 µM: NCI-H460 lung
